Test results reported in publication PMC2676060 (European journal of medicinal chemistry, 2008).

Key:
[1] = biological target: recombinant HIV-1 RT enzyme (p66/51 dimer) (Human immunodeficiency virus type 1 group M subtype B, UniProt P03366); experiment: RT inhibition assay, poly; format: biochemical; conditions: for HIV-1 RT inhibition (in words): poly(rC)·oligo(dG) as template primer
[2] = cited from earlier work

Row | Compound | HIV-1 RT inhibition (in words) [1] | further results
1 | COc1noc2c(C)cc(/C(=C\CCN3CCOC3=O)c3cc(C)c4oc(=O)n(C)c4c3)cc12 [Compound 8, (E)-5-[1-(3-Methoxy-7-methylbenzo[d]isoxazol-5-yl)-4-(2-oxoxazolidin-3-yl)-but-1-enyl]-3,7-dimethyl-3H-benzoxazol-2-one] | much less active | 
2 | COC(=O)CCC/C=C(\c1cc(F)cc(C(F)(F)F)c1)c1cc(C)c2onc(OC)c2c1 [Compound 1] |  | IC50 [1]: 900 nM
3 | COC(=O)CCC/C=C(\c1cc(C)c(OC)c(C(=O)OC)c1)c1cc(C)c2onc(OC)c2c1 [Compound 3, (Z)-2-Methoxy-5-[5-methoxycarbonyl-1-(3-methoxy-7-methylbenzo[d]isoxazol-5-yl)-pent-1-enyl]-3-methylbenzoic acid methyl ester] |  | IC50 [1]: 910 nM
4 | COC(=O)CCC/C=C(/c1cc(C)c2onc(OC)c2c1)c1cc(C)c2oc(=O)n(C)c2c1 [Compound 2] |  | stability in rat blood plasma (in words) [2]: unstable
5 | COc1noc2c(C)cc(/C(=C\CCN3CCOC3=O)c3cccc(C#N)c3)cc12 [Compound 9, (Z)-3-[1-(3-Methoxy-7-methylbenzo[d]isoxazol-5-yl)-4-(2-oxoxazolidin-3-yl)-but-1-enyl]-benzonitrile] | much less active | 
6 | COc1noc2c(C)cc(C(=CCCN3CCOC3=O)c3cc(C)c4onc(OC)c4c3)cc12 [Compound 7, 3-[4,4-Bis-(3-methoxy-7-methyl-benzo[d]isoxazol-5-yl)-but-3-enyl]-oxazolidin-2-one] | active | 
7 | COC(=O)c1cc(/C(=C/CCN2CCOC2=O)c2cc(C)c3onc(OC)c3c2)cc(Cl)c1OC [Compound 6, (E)-3-Chloro-2-methoxy-5-[1-(3-methoxy-7-methyl-benzo[d]isoxazol-5-yl)-4-(2-oxoxazolidin-3-yl)-but-1-enyl]-benzoic acid methyl ester] | much less active | 
8 | COC(=O)c1cc(/C(=C/CCN2CCOC2=O)c2cc(C)c3onc(OC)c3c2)cc(C)c1OC [Compound 5, (E)-2-Methoxy-5-[1-(3-methoxy-7-methylbenzo[d]isoxazol-5-yl)-4-(2-oxoxazolidin-3-yl)-but-1-enyl]-3-methylbenzoic acid methyl ester] | much less active | 
